# Experimental data from paper PMC11311998, “AR71, Histamine H3 Receptor Ligand—In Vitro and In Vivo Evaluation (Anti-Inflammatory Activity, Metabolic Stability, Toxicity, and Analgesic Action)” (International Journal of Molecular Sciences, 2024).
# Columns and labels:
# [1] = test system: rat models of neuropathic pain; set-up: method as in PMID 18164820; details: surgically or virus-induced; cited from earlier work
# SH-SY5Y cells [2] = type: cell-based, human; details: rotenone alone 6.25 μM, 24 h
# Procedure: To test neuroprotective activity, SH-SY5Y cells were pre-treated for 1 h with various concentrations of AR71, after which rotenone (6.25 μM) was added and the cells were cultured for another 24 h. […] Co-treatment with AR71 protected cells from the toxic effect of rotenone, resulting in LDH leakage ranging from 10 to 22% only.
# The protective effect of AR71 against rotenone-induced toxicity in SH-SY5Y cells was assessed by measuring LDH release. SH-SY5Y cells (6 × 10^3 cells/100 μL/well) were seeded in black 96-well plates Nunclon^TM Delta Surface no. 137101 (ThermoFischer Scientific, Waltham, MA, USA) and cultured overnight. The next day, the medium was removed and replaced with a fresh one with an increasing concentration of AR71 (0.0975–50 μM). After 1 h of compound pre-treatment, the neurotoxin rotenone (6.25 μM) was added, and the cells were cultured for another 24 h. For the negative and positive controls, cells were treated with 0.1% DMSO and 6.25 μM of rotenone alone, respectively. The cells treated with the compound alone were used to compare the effect with those co-treated with rotenone. After 24 h, the level of LDH leakage was measured by the CytoTox-ONE™ Homogeneous Membrane Integrity Assay (Promega, Madison, WI, USA) following the manufacturer’s protocol. Briefly, 100 μL of CytoTox-ONE™ reagent (Promega, Madison, WI, USA) was added to each well, and the cells were incubated for 10 min at room temperature protected from light. The fluorescence was measured using the multimode plate reader Tecan Spark (Tecan, Männedorf, Switzerland) with an excitation wavelength of 560 nm and an emission wavelength of 590 nm.
# SH-SY5Y cells [3] = test: mitochondrial membrane potential (JC-10); type: cell-based, human; details: 50 μM, 3 h
# Procedure: Neurotoxin-like rotenone induces oxidative stress inside cells that might influence mitochondrial membrane potential (MMP). Maintaining unaffected MMP is essential for neuroprotection. In our study, we tested the effect of AR71 on MMP in the presence and absence of rotenone.
# Next, the effect of AR71 (0.78 μM) when co-treated with rotenone was tested; 1 μM carbonyl cyanide m-chlorophenylhydrazone (CCCP) was used as a positive control.
# The MMP was measured by a commercially available kit (Sigma Aldrich, MAK159, for live cells) that utilises a cationic, lipophilic dye JC-10. It allows for ratiometric analysis of mitochondrial membrane potential, where a shift from orange (λEX/λEM: 540 nm/590 nm) to green fluorescence (λEX/λEM: 490 nm/525 nm) is indicative of compromised mitochondria. For this assay, the SH-SY5Y cells (1 × 10^4 cells/well) were seeded in a black-sided clear bottom 96-well plate (Thermo Scientific Nunclon^TM Delta Surface no. 137101, Denmark) in a complete culture medium. First, to choose the optimal concentration of rotenone in this assay, a dose–response effect of rotenone (0.05, 0.5, 5, 50 μM) was studied. Next, the cells were pre-treated with AR71 (0.78 μM) for 1 h before rotenone stimulation (50 μM) for another 3 h. […] The positive control was carbonyl cyanide m-chlorophenylhydrazone (CCCP; 1 μM)—uncoupling agent on the proton gradient. After incubation, 50 μL/well of the JC-10 dye loading solution was added to each well with cells. The plate was incubated for 45 min in the incubator. Then, 50 μL/well of Assay Buffer B was added to each well, and the fluorescence was monitored immediately. The red/green fluorescence intensity ratio was used to calculate the results.
Structure (SMILES),efficacy in rat models of neuropathic pain [1],LDH leakage vs control cells (SH-SY5Y cells [2]),reduction of MMP compared with control cells (SH-SY5Y cells [3])
CNC(=O)c1ccc(Oc2ccc3c(c2)CCN(C2CCC2)CC3)nc1 [GSK189254],effective,–,–
"C=C(C)[C@H]1Cc2c(ccc3c2O[C@@H]2COc4cc(OC)c(OC)cc4[C@@H]2C3=O)O1 [rotenone, reference compound]",–,twice as much LDH leakage as control cells,67%
CC(C)N1CCCN(C(=O)C2CCN(c3ccc(C(F)(F)F)nc3)CC2)CC1 [GSK334429],effective,–,–
